Article PMC6542369 (Bioorganic & medicinal chemistry letters, 2017)

Legend:
hM4 = target: T1, hM4 (Homo sapiens, UniProt P08173); assay type: cell-based; conditions: for loss of potency (fold): hM4 potency relative to 10a; for hM4 activity: replacement of the fluorine with other halogens
T1 sequence (P08173 1-479): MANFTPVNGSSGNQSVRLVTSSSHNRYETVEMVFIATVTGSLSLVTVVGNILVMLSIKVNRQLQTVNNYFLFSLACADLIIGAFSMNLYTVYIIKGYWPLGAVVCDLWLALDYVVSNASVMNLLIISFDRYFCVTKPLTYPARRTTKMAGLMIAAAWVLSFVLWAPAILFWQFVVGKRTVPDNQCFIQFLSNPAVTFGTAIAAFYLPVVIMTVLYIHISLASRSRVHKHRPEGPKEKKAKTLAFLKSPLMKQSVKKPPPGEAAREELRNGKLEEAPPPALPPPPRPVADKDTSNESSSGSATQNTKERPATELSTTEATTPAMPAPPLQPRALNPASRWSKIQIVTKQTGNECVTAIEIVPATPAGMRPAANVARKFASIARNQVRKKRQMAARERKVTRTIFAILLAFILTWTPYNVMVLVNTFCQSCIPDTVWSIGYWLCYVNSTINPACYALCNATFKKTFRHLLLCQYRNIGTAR

hM2 = target: T2, hM2 (Homo sapiens, UniProt P08172); experiment: mAChR subtype selectivity / counter screen, hM2; assay type: cell-based
T2 sequence (P08172 1-466): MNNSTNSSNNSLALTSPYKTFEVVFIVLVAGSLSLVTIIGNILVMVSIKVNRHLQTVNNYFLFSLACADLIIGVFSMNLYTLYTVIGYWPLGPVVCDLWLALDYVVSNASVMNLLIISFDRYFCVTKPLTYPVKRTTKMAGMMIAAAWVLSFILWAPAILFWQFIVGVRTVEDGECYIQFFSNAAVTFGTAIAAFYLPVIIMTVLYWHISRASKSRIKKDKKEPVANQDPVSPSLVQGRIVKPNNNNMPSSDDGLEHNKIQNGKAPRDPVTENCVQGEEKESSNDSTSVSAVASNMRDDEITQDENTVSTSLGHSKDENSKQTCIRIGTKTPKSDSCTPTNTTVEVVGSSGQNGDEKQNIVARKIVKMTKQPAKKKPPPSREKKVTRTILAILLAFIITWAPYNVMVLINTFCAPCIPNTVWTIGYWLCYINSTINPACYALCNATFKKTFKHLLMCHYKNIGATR

SMILES | loss of potency (fold) (hM4) | other results
COc1cccc(C2CN(C(=O)c3sc4nnc(C)c(C)c4c3N)C2)c1 [Compound 10h] | > 100 fold | –
COc1ccc(C2CN(C(=O)c3sc4nnc(C)c(C)c4c3N)C2)cc1 [Compound 10i] | ~ 3.5 fold | –
Cc1nnc2sc(C(=O)N3CC(c4ccc(F)cc4)C3)c(N)c2c1C [Compound 10l] | – | activity at hM2 (hM2): inactive
Cc1nnc2sc(C(=O)N3CC(c4ccc(Cl)cc4)C3)c(N)c2c1C [Compound 10m] | – | hM4 activity (hM4): complete loss of hM4 activity
Cc1nnc2sc(C(=O)N3CC(c4ccc(Br)cc4)C3)c(N)c2c1C [Compound 10n] | – | hM4 activity (hM4): complete loss of hM4 activity

Further lines, with some results ahead:

loss of potency (fold) (hM4) | SMILES | other results
~ 10 fold | Cc1nnc2sc(C(=O)N3CC(O)(c4ccccc4)C3)c(N)c2c1C [Compound 11a] | –
~ 6 fold | COC1(c2cccc(F)c2)CN(C(=O)c2sc3nnc(C)c(C)c3c2N)C1 [Compound 11b] | –
